Data: patent publication US20220119354A1, “DIAMINO-SUBSTITUTED PYRIDINES AND PYRIMIDINES AS HERBICIDES” (FMC Corporation, priority 2019, published 2022)

Assays:
Type in all cases: in vivo
[1] = test system: ragweed (common ragweed, Ambrosia elatior); assay: Test A postemergence, ragweed; details: 0 to 100 scale
In short: (§1)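 Post: seedlings 2–10 cm, 1–2 leaves, foliar spray. Pre: soil spray after sowing in loam/sand blend. Both formulated in non-phytotoxic solvent with surfactant; injury scored visually 0–100 after ~10 d.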

[2] = test system: blackgrass (Alopecurus myosuroides); assay: Test A postemergence, blackgrass; details: 0 to 100 scale
In short: as §1

[3] = test system: ryegrass, Italian (Lolium multiflorum); assay: Test A preemergence, Italian ryegrass; details: 0 to 100 scale
In short: as §1

[4] = test system: barnyardgrass (Echinochloa crus-galli); assay: Test A preemergence, barnyardgrass; details: 0 to 100 scale
In short: as §1

[5] = test system: sedge, umbrella (small-flower umbrella sedge, Cyperus difformis); assay: Test B flooded paddy test, umbrella sedge; details: Flood, 250 g ai/ha, applied to paddy water, 2-leaf stage, visual evaluation after 13 to 15 d
In short: (§2)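 2-leaf seedlings; pots flooded 3 cm above soil; compound added straight to paddy water; depth maintained. Greenhouse 13–15 d. Visual rating vs controls, 0–100 scale (0 = no effect, 100 = complete control).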

[6] = test system: kochia (Kochia scoparia); assay: Test A postemergence, kochia; details: 0 to 100 scale
In short: as §1

[7] = test system: rice (Oryza sativa); assay: Test B flooded paddy test, rice; details: Flood, 250 g ai/ha, applied to paddy water, 2-leaf stage, visual evaluation after 13 to 15 d
In short: as §2

[8] = test system: barnyardgrass (Echinochloa crus-galli); assay: Test B flooded paddy test, barnyardgrass; details: Flood, 250 g ai/ha, applied to paddy water, 2-leaf stage, visual evaluation after 13 to 15 d
In short: as §2

[9] = test system: galium (catchweed bedstraw, Galium aparine); assay: Test A postemergence, galium; details: 0 to 100 scale
In short: as §1

[10] = test system: ducksalad (Heteranthera limosa); assay: Test B flooded paddy test, ducksalad; details: Flood, 250 g ai/ha, applied to paddy water, 2-leaf stage, visual evaluation after 13 to 15 d
In short: as §2

[11] = test system: ryegrass, Italian (Lolium multiflorum); assay: Test A postemergence, Italian ryegrass; details: 0 to 100 scale
In short: as §1

[12] = test system: kochia (Kochia scoparia); assay: Test A preemergence, kochia; details: 0 to 100 scale
In short: as §1

[13] = test system: ragweed (common ragweed, Ambrosia elatior); assay: Test A preemergence, ragweed; details: 0 to 100 scale
In short: as §1

[14] = test system: foxtail, giant (Setaria faberii); assay: Test A preemergence, giant foxtail; details: 0 to 100 scale
In short: as §1

[15] = test system: pigweed (Amaranthus retroflexus); assay: Test A preemergence, pigweed; details: 0 to 100 scale
In short: as §1

[16] = test system: foxtail, giant (Setaria faberii); assay: Test A postemergence, giant foxtail; details: 0 to 100 scale
In short: as §1

[17] = test system: pigweed (Amaranthus retroflexus); assay: Test A postemergence, pigweed; details: 0 to 100 scale
In short: as §1

[18] = test system: wheat (Triticum aestivum); assay: Test A postemergence, wheat; details: 0 to 100 scale
In short: as §1

[19] = test system: barnyardgrass (Echinochloa crus-galli); assay: Test A postemergence, barnyardgrass; details: 0 to 100 scale
In short: as §1

[20] = test system: corn (Zea mays); assay: Test A postemergence, corn; details: 0 to 100 scale
In short: as §1

C[C@@H](Nc1ncc(C(F)(F)F)c(N)n1)c1cccc2ccccc12 [Compound 3]
0: Plant response rating, Blackgrass ([2]; 125 g ai/ha) | Plant response rating, Rice (0 to 100 scale, 0 is no effect, 100 is complete control) [7] | Plant response rating, Barnyardgrass (0 to 100 scale, 0 is no effect, 100 is complete control) [8] | Plant response rating, Ryegrass, Italian ([11]; 125 g ai/ha) | Plant response rating, Ryegrass, Italian ([11]; 500 g ai/ha) | Plant response rating, Foxtail, Giant ([16]; 125 g ai/ha) | Plant response rating, Wheat ([18]; 500 g ai/ha) | Plant response rating, Corn ([20]; 125 g ai/ha)
20: Plant response rating, Ryegrass, Italian ([3]; 125 g ai/ha) | Plant response rating, Wheat ([18]; 125 g ai/ha) | Plant response rating, Barnyardgrass ([19]; 125 g ai/ha)
90: Plant response rating, Ragweed ([1]; 500 g ai/ha) | Plant response rating, Ryegrass, Italian ([3]; 500 g ai/ha) | Plant response rating, Kochia ([6]; 500 g ai/ha) | Plant response rating, Galium ([9]; 500 g ai/ha) | Plant response rating, Foxtail, Giant ([14]; 500 g ai/ha) | Plant response rating, Pigweed ([17]; 125 g ai/ha)
30: Plant response rating, Ragweed ([1]; 125 g ai/ha) | Plant response rating, Blackgrass ([2]; 500 g ai/ha) | Plant response rating, Kochia ([6]; 125 g ai/ha) | Plant response rating, Galium ([9]; 125 g ai/ha) | Plant response rating, Ducksalad (0 to 100 scale, 0 is no effect, 100 is complete control) [10] | Plant response rating, Kochia ([12]; 125 g ai/ha)
80: Plant response rating, Barnyardgrass ([19]; 500 g ai/ha)
65: Plant response rating, Sedge, Umbrella (0 to 100 scale, 0 is no effect, 100 is complete control) [5]
40: Plant response rating, Foxtail, Giant ([16]; 500 g ai/ha)
100: Plant response rating, Barnyardgrass ([4]; 500 g ai/ha) | Plant response rating, Kochia ([12]; 500 g ai/ha) | Plant response rating, Ragweed ([13]; 125 g ai/ha) | Plant response rating, Ragweed ([13]; 500 g ai/ha) | Plant response rating, Pigweed ([15]; 125 g ai/ha) | Plant response rating, Pigweed ([15]; 500 g ai/ha) | Plant response rating, Pigweed ([17]; 500 g ai/ha)
10: Plant response rating, Barnyardgrass ([4]; 125 g ai/ha) | Plant response rating, Foxtail, Giant ([14]; 125 g ai/ha) | Plant response rating, Corn ([20]; 500 g ai/ha)

C[C@@H](Nc1ncc(C(F)(F)F)c(N)n1)c1cc2ccccc2s1 [Compound 4, N2-[(1R)-1-benzo[b]thien-2-ylethyl]-5-(trifluoromethyl)-2,4-pyrimidinediamine]
80%: pest or weed control at 125 g/ha ([1]; Ambrosia artemisiifolia, post-emergence, 240 h, 125 g ai/ha, read-out: Plant response rating, Ragweed) | pest or weed control at 125 g/ha ([9]; Galium, post-emergence, 240 h, 125 g ai/ha, read-out: Plant response rating, Galium) | pest or weed control at 500 g/ha ([9]; Galium, post-emergence, 240 h, 500 g ai/ha, read-out: Plant response rating, Galium)
70%: pest or weed control at 500 g/ha ([16]; Setaria faberi, post-emergence, 240 h, 500 g ai/ha, read-out: Plant response rating, Foxtail, Giant)
90: Plant response rating, Ryegrass, Italian ([3]; 500 g ai/ha) | Plant response rating, Barnyardgrass ([4]; 125 g ai/ha) | Plant response rating, Foxtail, Giant ([14]; 125 g ai/ha)
0%: pest or weed control at 125 g/ha ([2]; Alopecurus myosuroides, post-emergence, 240 h, 125 g ai/ha, read-out: Plant response rating, Blackgrass) | plant injury at 250 g/ha ([7]; Oryza sativa, 360 h, read-out: Plant response rating, Rice (0 to 100 scale, 0 is no effect, 100 is complete control)) | pest or weed control at 125 g/ha ([11]; Lolium multiflorum, post-emergence, 240 h, 125 g ai/ha, read-out: Plant response rating, Ryegrass, Italian) | plant injury at 125 g/ha ([18]; Triticum aestivum, post-emergence, 240 h, 125 g ai/ha, read-out: Plant response rating, Wheat) | plant injury at 500 g/ha ([18]; Triticum aestivum, post-emergence, 240 h, 500 g ai/ha, read-out: Plant response rating, Wheat) | Corn plant response rating (crop injury, 0 = no effect, 100 = complete kill) at 125 g/ha ([20]; Zea mays, post-emergence, 240 h, 125 g ai/ha)
100%: pest or weed control at 500 g/ha ([1]; Ambrosia artemisiifolia, post-emergence, 240 h, 500 g ai/ha, read-out: Plant response rating, Ragweed) | pest or weed control at 250 g/ha ([5]; Cyperus difformis, 360 h, read-out: Plant response rating, Sedge, Umbrella (0 to 100 scale, 0 is no effect, 100 is complete control)) | pest or weed control at 500 g/ha ([6]; Bassia scoparia, post-emergence, 240 h, 500 g ai/ha, read-out: Plant response rating, Kochia) | pest or weed control at 125 g/ha ([17]; Amaranthus retroflexus, post-emergence, 240 h, 125 g ai/ha, read-out: Plant response rating, Pigweed) | pest or weed control at 500 g/ha ([17]; Amaranthus retroflexus, post-emergence, 240 h, 500 g ai/ha, read-out: Plant response rating, Pigweed)
20%: pest or weed control at 500 g/ha ([11]; Lolium multiflorum, post-emergence, 240 h, 500 g ai/ha, read-out: Plant response rating, Ryegrass, Italian) | pest or weed control at 125 g/ha ([19]; Echinochloa crus-galli, post-emergence, 240 h, 125 g ai/ha, read-out: Plant response rating, Barnyardgrass)
45%: pest or weed control at 250 g/ha ([10]; Heteranthera limosa, 360 h, read-out: Plant response rating, Ducksalad (0 to 100 scale, 0 is no effect, 100 is complete control))
90%: pest or weed control at 125 g/ha ([6]; Bassia scoparia, post-emergence, 240 h, 125 g ai/ha, read-out: Plant response rating, Kochia)
60%: pest or weed control at 500 g/ha ([2]; Alopecurus myosuroides, post-emergence, 240 h, 500 g ai/ha, read-out: Plant response rating, Blackgrass) | pest or weed control at 500 g/ha ([19]; Echinochloa crus-galli, post-emergence, 240 h, 500 g ai/ha, read-out: Plant response rating, Barnyardgrass)
30%: pest or weed control at 125 g/ha ([16]; Setaria faberi, post-emergence, 240 h, 125 g ai/ha, read-out: Plant response rating, Foxtail, Giant) | Corn plant response rating (crop injury, 0 = no effect, 100 = complete kill) at 500 g/ha ([20]; Zea mays, post-emergence, 240 h, 500 g ai/ha)
80: Plant response rating, Ryegrass, Italian ([3]; 125 g ai/ha)
95%: pest or weed control at 250 g/ha ([8]; Echinochloa crus-galli, 360 h, read-out: Plant response rating, Barnyardgrass (0 to 100 scale, 0 is no effect, 100 is complete control))
100: Plant response rating, Barnyardgrass ([4]; 500 g ai/ha) | Plant response rating, Kochia ([12]; 125 g ai/ha) | Plant response rating, Kochia ([12]; 500 g ai/ha) | Plant response rating, Ragweed ([13]; 125 g ai/ha) | Plant response rating, Ragweed ([13]; 500 g ai/ha) | Plant response rating, Foxtail, Giant ([14]; 500 g ai/ha) | Plant response rating, Pigweed ([15]; 125 g ai/ha) | Plant response rating, Pigweed ([15]; 500 g ai/ha)
